# Assay results taken from patent EP3772943B1, “FORMULATION OF INSECTICIDAL MIXTURES WITH PROPYLENE CARBONATE” (Bayer Aktiengesellschaft, priority 2018, dated 2019).
# Test system: enzymatisch isolierte Kutikeln von Apfelbaumblättern
# Assay: Cuticle penetration test in diffusion cells with HPLC read-out (Beispiel V)
# Assay type: in vitro ADME, Apfelbäumen
# Conditions: active substances without additives and in presence of propylene carbonate (Tabelle V, Eintrag 1,2)
# Description: In diesem Test wird die Penetration von Wirkstoffen durch enzymatisch isolierte Kutikeln von Apfelbaumblättern gemessen.
# Verwendet werden Blätter, die in voll entwickeltem Zustand von Apfelbäumen abgeschnitten werden und nach der Methode beschrieben bei Schönherr und Riederer isoliert (Schönherr, J., Riederer, M. (1986)). Es werden nur die von Spaltöffnungen und Haaren freien Kutikeln der Blattoberseiten weiter verwendet. Die so gewonnenen Kutikularmembranen werden für Membran-Transport-Untersuchungen in Diffusionszellen (=Transportkammern) aus Edelstahl eingelegt. Dazu werden die Kutikeln mit einer Pinzette mittig auf die mit Silikonfett bestrichenen Ränder der Diffusionszellen plaziert und mit einem ebenfalls gefetteten Ring verschlossen. Die Anordnung ist so gewählt, dass die morphologische Außenseite der Kutikeln nach außen, also zur Luft, gerichtet ist, während die ursprüngliche Innenseite dem Inneren der Diffusionszelle zugewandt ist. Die Diffusionszellen sind mit Wasser bzw. mit einem Gemisch aus Wasser und Lösungsmittel gefüllt und auf des physiologisch relevante pH von 5.5 gepuffert. Das Medium der Diffusionszellen soll das Apoplast, also das natürliche Aufnahmemdium im inneren des Blattes nachstellen. […]
smiles,measurement,value
O=C1C=C(N(Cc2ccc(Cl)nc2)CC(F)F)CO1 [Flupyradifurone],Kutikelpenetration,keine oder kaum Kutikelpenetration
